Reference: patent US20160286810A1, “ACTIVE COMPOUND COMBINATIONS” (BAYER CROPSCIENCE AG, priority 2012, published 2016)

Tests used:
Assay type in all cases: in vivo
Venturia inaequalis = assay: Venturia test (apples)/preventive; conditions: preventive, 10 days after inoculation
Method: (§1) Solvent: 24.5 parts by weight of acetone • 24.5 parts by weight of dimethylacetamide Emulsifier: 1 part by weight of alkylaryl polyglycol ether
(§2) To produce a suitable preparation of active compound, 1 part by weight of active compound is mixed with the stated amounts of solvent and emulsifier, and the concentrate is diluted with water to the desired concentration.
(§3) To test for preventive activity, young plants are sprayed with the preparation of active compound at the stated rate of application. After the spray coating has dried on, the plants are inoculated with an aqueous conidia suspension of the causal agent of apple scab (Venturia inaequalis) and then remain for 1 day in an incubation cabinet at approximately 20° C. and a relative atmospheric humidity of 100%.
The plants are then placed in a greenhouse at approximately 21° C. and a relative atmospheric humidity of approximately 90%.
The test is evaluated 10 days after the inoculation. 0% means an efficacy which corresponds to that of the untreated control, while an efficacy of 100% means that no disease is observed.

Leptosphaeria nodorum = Leptosphaeria nodorum test (wheat)/preventive; conditions: preventive, 8 days after inoculation
Method: Solvent: 49 parts by weight of N,N-dimethylacetamide Emulsifier: 1 part by weight of alkylaryl polyglycol ether To produce a suitable preparation of active compound, 1 part by weight of active compound or active compound combination is mixed with the stated amounts of solvent and emulsifier, and the concentrate is diluted with water to the desired concentration. To test for preventive activity, young plants are sprayed with the preparation of active compound or active compound combination at the stated rate of application. After the spray coating has been dried, the plants are sprayed with a spore suspension of Leptosphaeria nodorum. The plants remain for 48 hours in an incubation cabinet at approximately 20° C. and a relative atmospheric humidity of approximately 100%. The plants are placed in the greenhouse at a temperature of approximately 22° C. and a relative atmospheric humidity of approximately 80%. The test is evaluated 8 days after the inoculation. 0% means an efficacy which corresponds to that of the untreated control, while an efficacy of 100% means that no disease is observed.

Alternaria solani = assay: Alternaria test (tomatoes)/preventive; conditions: preventive, 3 days after inoculation
Method: as §1, §2
as §3, with “spore” for “conidia”, “Alternaria solani. The plants are” for “the causal agent of apple scab (Venturia inaequalis) and”, “placed” for “remain for 1 day”
The test is evaluated 3 days after the inoculation. 0% means an efficacy which corresponds to that of the untreated control while an efficacy of 100% means that no disease is observed.

Botrytis cinerea = assay: Botrytis test (beans)/preventive; conditions: preventive, 2 days after inoculation
Method: as §1, §2
To test for preventive activity, young plants are sprayed with the preparation of active compound. After the spray coating has dried on, 2 small pieces of agar covered with growth of Botrytis cinerea are placed on each leaf. The inoculated plants are placed in a darkened chamber at 20° C. and a relative atmospheric humidity of 100%.
2 days after the inoculation, the size of the lesions on the leaves is evaluated. 0% means an efficacy which corresponds to that of the untreated control, while an efficacy of 100% means that no disease is observed.

CNC(=O)C(OC)c1ccccc1COc1cc(C)ccc1C (stereo not drawn) [Ex 14, N-methyl-alpha-methoxy-2-[(2,5-dimethylphenoxy)methyl]phenylacetamide]
Efficacy in % found (Venturia inaequalis; 1.25 ppm a.i.): 31% | Efficacy in % found (Leptosphaeria nodorum; 250 ppm a.i.): 25% | Efficacy in % found (Alternaria solani; 5 ppm a.i.): 52% | Efficacy in % found (Botrytis cinerea; 1.25 ppm a.i.): 0%

Cn1c(=O)c2sc3c(=O)n(C)c(=O)c3sc2c1=O [(I-1), 2,6-dimethyl-1H,5H-[1,4]dithiino[2,3-c:5,6-c′]dipyrrole-1,3,5,7(2H,6H)-tetrone]
Efficacy in % found (Venturia inaequalis; 12.5 ppm a.i.): 0% | Efficacy in % found (Venturia inaequalis; 25 ppm a.i.): 15% | Efficacy in % found (Venturia inaequalis; 50 ppm a.i.): 62% | Efficacy in % found (Leptosphaeria nodorum; 1000 ppm a.i.): 0% | Efficacy in % found (Alternaria solani; 50 ppm a.i.): 29% | Efficacy in % found (Alternaria solani; 100 ppm a.i.): 26% | Efficacy in % found (Botrytis cinerea; 12.5 ppm a.i.): 15% | Efficacy in % found (Botrytis cinerea; 25 ppm a.i.): 33%

OC(c1cccnc1)c1c(-c2ccc(Cl)cc2F)noc1-c1ccc(F)cc1F (centres unmarked) [Ex 15, [3-(4-chloro-2-fluorophenyl)-5-(2,4-difluorophenyl)-1,2-oxazol-4-yl](pyridin-3-yl)methanol]
Efficacy in % found (Venturia inaequalis; 5 ppm a.i.): 60% | Efficacy in % found (Leptosphaeria nodorum; 250 ppm a.i.): 88% | Efficacy in % found (Alternaria solani; 5 ppm a.i.): 24% | Efficacy in % found (Botrytis cinerea; 2.5 ppm a.i.): 0%

CC1(C)N=C(c2cnc3ccccc3c2)c2ccccc2C1(F)F [Ex 10, 3-(4,4-difluoro-3,3-dimethyl-3,4-dihydroisoquinolin-1-yl)quinoline]
Efficacy in % found (Leptosphaeria nodorum; 250 ppm a.i.): 88% | Efficacy in % found (Alternaria solani; 100 ppm a.i.): 37%

CC1(C)N=C(c2cnc3ccccc3c2)c2cccc(F)c2C1(C)C [Ex 11, 3-(5-fluoro-3,3,4,4-tetramethyl-3,4-dihydroisoquinolin-1-yl)quinoline]
Efficacy in % found (Venturia inaequalis; 1 ppm a.i.): 0% | Efficacy in % found (Leptosphaeria nodorum; 250 ppm a.i.): 75% | Efficacy in % found (Alternaria solani; 50 ppm a.i.): 38% | Efficacy in % found (Botrytis cinerea; 0.5 ppm a.i.): 30%

Cc1cc(OC(C)C)ccc1C(=O)C(C)(C)NC(=O)c1sccc1C [Ex 13, N-[1-(4-isopropoxy-2-methylphenyl)-2-methyl-1-oxopropan-2-yl]-3-methylthiophene-2-carboxamide]
Efficacy in % found (Venturia inaequalis; 10 ppm a.i.): 64% | Efficacy in % found (Leptosphaeria nodorum; 250 ppm a.i.): 25% | Efficacy in % found (Alternaria solani; 20 ppm a.i.): 52%

CC1(C)N=C(c2cnc3ccccc3c2)c2cccc(F)c2C1(F)F [Ex 12, 3-(4,4,5-trifluoro-3,3-dimethyl-3,4-dihydroisoquinolin-1-yl)quinoline]
Efficacy in % found (Venturia inaequalis; 0.25 ppm a.i.): 46% | Efficacy in % found (Leptosphaeria nodorum; 250 ppm a.i.): 75% | Efficacy in % found (Alternaria solani; 50 ppm a.i.): 13% | Efficacy in % found (Botrytis cinerea; 0.5 ppm a.i.): 35%
